According to PubChem BioAssay (NCI):
Several values for one entry are separate records, joined by “and”; a condition that tells them apart may be missing. Equal values may be shown once.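 Following 48 hours of exposure in 96-well plates, responses at five concentrations were used to interpolate endpoints linearly. At the GI50, growth is halved. The concentration for full growth arrest is given as TGI.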 *1 amine or outer side, *2 acyl side, *3 side chain or, on linkers, in order; H or OH if unused. Where a SMILES comes first, the peptide text is derived from it. [ ]: non-standard residue; d: D form. The star is where a group is joined. X11 = C/C=C/CC(C)C(O)[C@H](N[*:1])C(=O)[*:2]; Leu(ol) = CC(C)C[C@H](N)CO; Iva = CC[C@](C)(N)C(=O)O; Octanoyl = CCCCCCCC(=O)*; Aib = CC(C)(N)C(=O)O

Test system: MDA-MB-468 breast
Assay: growth of human tumour cells (NCI), 48 h

| SMILES | GI50 | TGI |
| --- | --- | --- |
| Cc1nnc(-c2cccc(-c3ccc(C(=O)NCC4CC4)cc3)c2)o1 | > 25 µM | > 25 µM |
| O=C(CCC(=O)N1CCOCC1)OCCCCCCSc1ccc([N+](=O)[O-])c2nonc12 | 1.11 µM | 2.9 µM |
| CC(C)(C)c1cc(-n2c(-c3ccc(Cl)cc3)nc3cc(C(=O)Nc4ccc(Cl)cc4)ccc32)n[nH]1 | 4.88 µM | > 100 µM |
| O=C(Cc1ccc(F)c(F)c1)Nc1cc(C2(C(F)(F)F)CC2)nn1Cc1ccccc1 | 2.67 µM | 9.41 µM |
| CC(=O)C1=C(O)C=C2Oc3c(C(=O)/C=C/c4c(Cl)cccc4Cl)c(O)c(C)c(O)c3[C@]2(C)C1=O | 1.19 µM | 4.89 µM |
| COc1ccc2c(=O)cc(C(Cl)(Cl)Cl)oc2c1 | 0.383 µM | 14.4 µM |
| Nc1c(C(=O)Nc2cccc(F)c2)sc2nc3c(cc12)C(=O)CCC3 | 0.159 µM | > 100 µM |
| CC(C)=CCC[C@](C)(O)[C@H]1CC[C@]2(C)[C@@H]1CC[C@@H]1[C@@]3(C)CC/C(=N/O)C(C)(C)[C@@H]3CC[C@]12C | 8.7 µM | 71.3 µM |
| CS(=O)(=O)CCc1cccc(C(=O)c2cnn(-c3ccc(F)cc3)c2N)c1 | > 25 µM | > 25 µM |
| O=C(Nc1ccc(-n2ccc3c(NC(=O)c4ccccc4)ncnc32)cc1)Nc1ccc(Cl)c(Cl)c1 | 1.92 µM | 8.04 µM |
| CC(C)=CCC/C(C)=C/CC/C(C)=C/CSc1ccccc1C(=O)O | 27.5 µM | > 90 µM |
| COc1ccc([C@@H]2C(=O)N(c3cc(OC)c(OC)c(OC)c3)[C@H]2c2ccc(OC)c(O)c2)cc1 | 0.0245 µM | 0.0671 µM |
| O=C(c1ccccc1)C(CN1CCCCC1)c1ccccc1 (stereo not given) | 0.536 µM | 1.9 µM |
| C[n+]1c2cc(N)ccc2cc2ccc(N)cc21 | 342 nM [middle of 4 runs] | – |
| O=C(NCCCO)c1cc(Cl)ccc1O | 1.19 µM | 7.18 µM |
| O=C(Nc1ccncc1)C(=O)c1cn(S(=O)(=O)c2ccc(Cl)cc2)c2ccccc12 | 0.746 µM | 9.11 µM |
| COc1cc(NCCCN=C(N)NC(N)=NC(C)C)c2ncccc2c1 | 0.112 µM | 0.501 µM |
| O=c1cc(-c2cccc3c2Sc2ccccc2S3)oc(N2CCOCC2)c1 | 2.8 µM | 14.5 µM |
| CCN(CC)CC(O)CNc1c2ccc([N+](=O)[O-])cc2nc2cc(OC)c(OC)cc12 (stereo not given) | 0.172 µM | 0.475 µM |
| O=C(c1ccccc1)C1OC1c1ccc([N+](=O)[O-])cc1 (stereo not given) | 2.28 µM | 6.79 µM |
| O=C1C=CC(=Nc2cc(Br)c(O)c(Br)c2)C=C1 | 10.5 µM | 30.5 µM |
| [N-]=[N+]=NCCCCCC(=O)OC(C(=O)c1ccccc1)c1cccc(OCC(=O)NCCOCCOCCNC(=O)CCCC[C@@H]2SC[C@@H]3NC(=O)N[C@@H]32)c1 (stereo not given in full) | 27.5 µM | > 100 µM |

| SMILES | GI50 | TGI |
| --- | --- | --- |
| c1ccc(CN2COc3c(ccc4c3OCN(Cc3ccccc3)C4)C2)cc1 | 0.796 µM | 5.2 µM |
| Cc1nc2ccccc2c(/C=C/c2ccc(Cl)cc2)c1C(=O)/C=C/c1ccc(C(F)(F)F)cc1 | 1.3 µM | 2.93 µM |
| C=CCN(C)S(=O)(=O)/N=C1\NC(=O)NC1=C(Cl)Cl | 0.578 µM | 15.6 µM |
| CN(Cc1ccccc1)c1ccc(CO)c(Cl)c1 | 0.0795 µM | 0.248 µM |
| COc1cccc(NC(=O)c2sc3nc(C)c(C(O)c4ccccc4)cc3c2N)c1 (stereo not given) | 0.27 µM | 30.2 µM |
| CC(=O)c1c(C)[nH]c(-c2nc3ccc(N4CCN(C)CC4)cc3[nH]2)c1-c1ccc(N(C)C)cc1 | 0.2 µM | 2.89 µM |
| CCN(CC)CCCNCc1cc(-c2ccccc2)nc2ccccc12 | 14.8 µM | 30.8 µM |
| O=C(O)C1(C(=O)O)CCC1.[NH2-].[NH2-].[Pt+2] | 43.7 µM | > 216 µM |
| CNC(=O)c1ccccc1Nc1nc(Nc2cc(OC)c(OC)c(OC)c2)ncc1Br | 0.0782 µM | 0.625 µM |
| O=Nc1ccc(NO)c2ccccc12 | 13.9 µM | 44.4 µM |
| C=C1CCC2C3(C)COC(c4ccccc4)OC3CCC2(C)C1/C=C/C1=CCOC1=O (stereo not given) | 2.49 µM | 6.41 µM |
| Cc1cc(N2CCOCC2)nc(N[C@@H]2CCC[C@H](Nc3ccnc4cc(Cl)ccc34)C2)n1 | 1.76 µM | 4.04 µM |
| Oc1ccc(-c2nc3ccccc3s2)cc1CN(Cc1ccccn1)Cc1ccccn1 | 2.48 µM | 17 µM |
| COC(=O)c1cc(O)c2cc3c(cc2c1-c1cc(OC)c(OC)c(OC)c1)OCO3 | 0.411 µM | 44.7 µM |
| O=C(COc1cc(O)c2c(=O)cc(-c3ccccc3)oc2c1)Nc1ccccc1C(F)(F)F | 4.95 µM | 35.8 µM |
| Cc1nc(-c2cn3c(n2)-c2ccc(-c4cnn(C(C)(C)C(N)=O)c4)cc2OCC3)n(C(C)C)n1 | 0.134 µM and 0.0499 µM | 1.55 µM and 0.822 µM |
| COc1cc(-c2cc(O)c(-c3ccc4ccccc4n3)c(=O)[nH]2)cc(OC)c1OC | 3.38 µM | 26 µM |
| C/C=C/CC(C)C(O)[C@H](NC(=O)[C@@H]1CCCN1C(=O)C(C)(C)NC(=O)CCCCCCC)C(=O)N[C@@](C)(CC)C(=O)N[C@@H](CCC(N)=O)C(=O)N[C@H](CCC(N)=O)C(=O)NC(C)(C)C(=O)NC(C)(C)C(=O)N[C@@H](CCC(N)=O)C(=O)N[C@H](CC(C)C)C(=O)N[C@H](CO)CC(C)C (stereo partly drawn) (Octanoyl-[Aib]P[X11][Iva]Q[dQ][Aib][Aib]Q[dL][Leu(ol)]) | 1.68 µM | 3.35 µM |
| COCc1cc(C(=O)Nc2cc([C@H]3CC[C@@H](OC(=O)NC(C)C)C3)[nH]n2)n(C)n1 | 13.5 µM | 35 µM |
| NCCOCCOCCNc1nc(-c2ccccc2)nc(N2CCN(c3ccccn3)CC2)n1 | 7.23 µM | 20.6 µM |
| C=CC(=O)Nc1cc(C)ccc1Nc1nc(Nc2cc(OC)ncc2C)ncc1C(F)(F)F | 1.86 µM | 6.06 µM |
